Assay results from BigSolDB 2.1.

C=C1CCN([C@H](C)[C@](O)(Cn2cncn2)c2ccc(F)cc2F)CC1
solubility (mole fraction) (in DMF, 288.15 K): 0.281
solubility (mole fraction) (in DMF, 293.15 K): 0.298
solubility (mole fraction) (in DMF, 298.15 K): 0.316
solubility (mole fraction) (in DMF, 303.15 K): 0.334
solubility (mole fraction) (in DMF, 308.15 K): 0.353
solubility (mole fraction) (in PEG-400, 288.15 K): 0.171
solubility (mole fraction) (in PEG-400, 293.15 K): 0.182
solubility (mole fraction) (in PEG-400, 298.15 K): 0.194
solubility (mole fraction) (in PEG-400, 303.15 K): 0.206
solubility (mole fraction) (in PEG-400, 308.15 K): 0.219
solubility (mole fraction) (in THF, 288.15 K): 0.321
solubility (mole fraction) (in THF, 293.15 K): 0.335
solubility (mole fraction) (in THF, 298.15 K): 0.351
solubility (mole fraction) (in THF, 303.15 K): 0.367
solubility (mole fraction) (in THF, 308.15 K): 0.382
solubility (mole fraction) (in acetone, 288.15 K): 0.243
solubility (mole fraction) (in acetone, 293.15 K): 0.261
solubility (mole fraction) (in acetone, 298.15 K): 0.28
solubility (mole fraction) (in acetone, 303.15 K): 0.301
solubility (mole fraction) (in acetone, 308.15 K): 0.321
solubility (mole fraction) (in acetonitrile, 288.15 K): 0.0874
solubility (mole fraction) (in acetonitrile, 293.15 K): 0.109
solubility (mole fraction) (in acetonitrile, 298.15 K): 0.136
solubility (mole fraction) (in acetonitrile, 303.15 K): 0.168
solubility (mole fraction) (in acetonitrile, 308.15 K): 0.204
solubility (mole fraction) (in dichloromethane, 288.15 K): 0.321
solubility (mole fraction) (in dichloromethane, 293.15 K): 0.34
solubility (mole fraction) (in dichloromethane, 298.15 K): 0.358
solubility (mole fraction) (in dichloromethane, 303.15 K): 0.379
solubility (mole fraction) (in dichloromethane, 308.15 K): 0.4
solubility (mole fraction) (in ethanol, 288.15 K): 0.122
solubility (mole fraction) (in ethanol, 293.15 K): 0.144
solubility (mole fraction) (in ethanol, 298.15 K): 0.172
solubility (mole fraction) (in ethanol, 303.15 K): 0.203
solubility (mole fraction) (in ethanol, 308.15 K): 0.242
solubility (mole fraction) (in ethyl acetate, 288.15 K): 0.231
solubility (mole fraction) (in ethyl acetate, 293.15 K): 0.251
solubility (mole fraction) (in ethyl acetate, 298.15 K): 0.272
solubility (mole fraction) (in ethyl acetate, 303.15 K): 0.297
solubility (mole fraction) (in ethyl acetate, 308.15 K): 0.321
solubility (mole fraction) (in isopropanol, 288.15 K): 0.0849
solubility (mole fraction) (in isopropanol, 293.15 K): 0.105
solubility (mole fraction) (in isopropanol, 298.15 K): 0.125
solubility (mole fraction) (in isopropanol, 303.15 K): 0.152
solubility (mole fraction) (in isopropanol, 308.15 K): 0.184
solubility (mole fraction) (in methanol, 288.15 K): 0.176
solubility (mole fraction) (in methanol, 293.15 K): 0.195
solubility (mole fraction) (in methanol, 298.15 K): 0.214
solubility (mole fraction) (in methanol, 303.15 K): 0.236
solubility (mole fraction) (in methanol, 308.15 K): 0.259
solubility (mole fraction) (in n-butanol, 288.15 K): 0.113
solubility (mole fraction) (in n-butanol, 293.15 K): 0.135
solubility (mole fraction) (in n-butanol, 298.15 K): 0.159
solubility (mole fraction) (in n-butanol, 303.15 K): 0.185
solubility (mole fraction) (in n-butanol, 308.15 K): 0.218
solubility (mole fraction) (in n-propanol, 288.15 K): 0.12
solubility (mole fraction) (in n-propanol, 293.15 K): 0.142
solubility (mole fraction) (in n-propanol, 298.15 K): 0.164
solubility (mole fraction) (in n-propanol, 303.15 K): 0.191
solubility (mole fraction) (in n-propanol, 308.15 K): 0.222
solubility (mole fraction) (in propylene glycol, 288.15 K): 0.0278
solubility (mole fraction) (in propylene glycol, 293.15 K): 0.031
solubility (mole fraction) (in propylene glycol, 298.15 K): 0.0343
solubility (mole fraction) (in propylene glycol, 303.15 K): 0.0384
solubility (mole fraction) (in propylene glycol, 308.15 K): 0.0424
solubility (mole fraction) (in transcutol, 288.15 K): 0.218
solubility (mole fraction) (in transcutol, 293.15 K): 0.233
solubility (mole fraction) (in transcutol, 298.15 K): 0.247
solubility (mole fraction) (in transcutol, 303.15 K): 0.262
solubility (mole fraction) (in transcutol, 308.15 K): 0.276
solubility (mole fraction) (in water, 288.15 K): 1.08e-06
solubility (mole fraction) (in water, 293.15 K): 1.4e-06
solubility (mole fraction) (in water, 298.15 K): 1.77e-06
solubility (mole fraction) (in water, 303.15 K): 2.29e-06
solubility (mole fraction) (in water, 308.15 K): 2.91e-06
